Assay results published in patent US12235278B2, “Compositions and methods for evaluation of antiplatelet drug sensitivity” (Beth Israel Deaconess Medical Center, Inc., priority 2018, dated 2025).
Entries after “also recorded” stand apart in the source; their conditions may differ.

Tests used:
Type in all cases: cell-based
[1] = tested on: Drp1-Ser616 phosphorylation; experiment: Western blot of Drp1 Ser616 phosphorylation in platelets; conditions: for Drp1 phosphorylation at Ser616 elicited by the agent: platelets incubated with the agent; for Effect on SFLLRN-induced (PAR1-mediated) Drp1-Ser616 phosphorylation: platelets
[2] = tested on: Drp1-Ser616 phosphorylation; experiment: Drp1 ratio assay with chemiluminescence format; conditions: ADP 20 μM; for Time to maximum Drp1 ratio after exposure to agonist: arachidonic acid 500 μg/mL, SFLLRN 25 μM, elevated by 5 minutes
Method: Samples were subsequently lysed and assessed by either colorimetric or chemiluminescence ELISAs. […] Samples were activated with the indicated platelet agonist [A: ADP (20 μM); […] Samples were left at room temperature for the indicated amount of time prior to freezing (−80° C.) and were subsequently analyzed using the Drp1 ratio assay with a chemiluminescence format. […] FIGS. 12A-12C show activation time studies with various platelet agonists. Platelets were exposed to agonists and subsequently analyzed using the Drp1 ratio assay with a chemiluminescence format.

[3] = tested on: Drp1-Ser637 phosphorylation; experiment: Western blot of Drp1 Ser637 phosphorylation in platelets
[4] = tested on: Drp1-Ser616 phosphorylation; experiment: MAP kinase inhibition studies, ELISA of agonist-induced Drp1-Ser616 phosphorylation in twice washed platelets; conditions: agonists SFLLRN, U46619, collagen, ADP or AYPGKF; SB203580 20 μM, PD0325901 5 μM, SP600125 5 μM
Method: Using twice washed platelets, 400 μL aliquots were incubated at 37° C. for 30 min with SB203580 (20 μM), PD0325901 (5 μM), SP600125 (5 μM) or left untreated and then activated with respective agonist for 10 min at 37° C. Subsequently, 100 μL of 5×RIPA buffer was added and samples were lysed on ice for minimum of 15 min. Samples were stored at −80° C. until assayed by ELISA.
(§1) Capture antibody (Ms Drp1 mAb) diluted in Tris-buffered saline (TBS) was incubated on plates at RT (2 hrs) or at 4° C. overnight. […] Wells were blocked with 3% BSA in TBST for a minimum of 1.5 hrs. […] Wells were again washed with TBST and incubated with either Rb Drp1 or p-Drp1 (Ser616) mAb at RT for 1 hr.

[5] = tested on: Drp1-Ser616 phosphorylation; experiment: Drp1-Ser616 phosphorylation assay in whole blood; conditions: for Effect on SFLLRN-induced phospho-Drp1-Ser616 signal: whole blood; for Stimulation of Drp1-Ser616 phosphorylation: whole blood (thrombin: whole blood and platelet rich plasma)
[6] = tested on: Drp1-Ser616 phosphorylation; experiment: Arachidonic acid-induced Drp1-Ser616 phosphorylation in platelets, ELISA dose response; conditions: Platelet; [arachidonic acid]=10 μg/mL; read-out: IC50, inhibition of arachidonic acid-induced phosphorylation of Drp1-Ser616
Method: Dilutions of Tyrode's buffer+3 mM aspirin were prepared. A modified platelet wash protocol was then performed. PRP [supplemented with 20% ACD (v/v) and PGE1 (1 μM)] was spun at 800 g for 12 min. After removal of the supernatant, platelet pellet was resuspended in Tyrode's buffer and allowed to rest at 37° C. for minimum of 25 min. Platelets were counted by Hemavet and were again supplemented with ACD and PGE1 before being aliquoted into microcentrifuge tubes and spun at 800 g for 12 min. Aliquots were of sufficient volume to permit a final platelet count of approximately 4×10^5/μL when platelet pellet was resuspended in 400 μL of Tyrode's buffer or Tyrode's buffer/aspirin dilution. After resuspension, samples were incubated at 37° C. for 1 hr before being activated for 10 min at 37° C. with arachidonic acid (Bio Data Corp. Horsham, PA) at a final concentration of 10 μg/mL. Samples were lysed with 100 μL 5×RIPA buffer on ice for a minimum of 15 min before being stored at −80° C. until assayed by ELISA.
as §1

[7] = tested on: Drp1-Ser616 phosphorylation; experiment: SFLLRN-induced Drp1-Ser616 phosphorylation in washed platelets, ELISA dose response (phospho-Drp1-Ser616/total Drp1); conditions: Platelet; read-out: IC50, inhibition of SFLLRN-induced Drp1-Ser616 phosphorylation
Method: Serial dilutions of Vorapaxar and Cangrelor were prepared in DMSO. […] Vehicle only samples were also prepared and incubated at 37° C. Samples were subsequently lysed with 5×RIPA buffer and stored at −80° C. until assayed by ELISA.
as §1

platelet aggregation = experiment: Platelet aggregometry, ADP-activated platelets; conditions: ADP 20 μM, compared with Drp1 ratio assay

Nc1ncnc2c1ncn2[C@@H]1O[C@H](COP(=O)(O)OP(=O)(O)O)[C@@H](O)[C@H]1O [ADP]
Drp1 phosphorylation at Ser616 elicited by the agent [1]: resulted in 5616-Drp1 phosphorylation
Time to maximum Drp1 ratio after exposure to agonist [2]: approximately 12. 5 minutes

CCCCCCOC(=O)[C@]1(O)C[C@@H]2O[C@@]1(C)n1c3ccccc3c3c4c(c5c6ccccc6n2c5c31)C(=O)NC4 [KT5720]
Effect on forskolin-mediated Drp1-Ser637 phosphorylation [3]: completely abolished

CNc1nc(Cl)nc2c1ncn2CC(COC(=O)C(C)(C)C)COC(=O)C(C)(C)C [MRS 2395]
Effect on ADP-induced Drp1-Ser616 phosphorylation ([1]; platelets incubated with ADP): inhibited

O=C(NOC[C@H](O)CO)c1ccc(F)c(F)c1Nc1ccc(I)cc1F [PD0325901]
Effect on agonist-induced Drp1-Ser616 phosphorylation [4]: modest inhibition

Cn1cc(C2=C(c3cn(CCCSC(=N)N)c4ccccc34)C(=O)NC2=O)c2ccccc21 [Ro 31-8220]
Effect on SFLLRN-induced (PAR1-mediated) Drp1-Ser616 phosphorylation [1]: failed to inhibit

C[S+]([O-])c1ccc(-c2nc(-c3ccncc3)c(-c3ccc(F)cc3)[nH]2)cc1 (stereo not shown) [SB203580]
Effect on SFLLRN-induced (PAR1-mediated) Drp1-Ser616 phosphorylation [1]: inhibited
Effect on agonist-induced Drp1-Ser616 phosphorylation [4]: potently blocked
Effect on SFLLRN-induced phospho-Drp1-Ser616 signal [5]: inhibited

Oc1c2ccccc2c2c3c(cccc13)N=N2 [SP600125]
Effect on agonist-induced Drp1-Ser616 phosphorylation [4]: failed to inhibit

CCCCC[C@H](O)/C=C/[C@@H]1[C@@H](C/C=C\CCCC(=O)O)[C@H]2CO[C@@H]1C2 [U46619]
Drp1 phosphorylation at Ser616 elicited by the agent [1]: Phosphorylation of Drp1 at S616 was observed
Stimulation of Drp1-Ser616 phosphorylation [5]: significant stimulation

CCCCC/C=C\C/C=C\C/C=C\C/C=C\CCCC(=O)O [arachidonic acid]
Stimulation of Drp1-Ser616 phosphorylation [5]: significant stimulation
Time to maximum Drp1 ratio after exposure to agonist [2]: approximately 12. 5 minutes

CC(=O)Oc1ccccc1C(=O)O [aspirin, acetylsalicylic acid]
IC50 [6]: ~1000 nM

CSCCNc1nc(SCCC(F)(F)F)nc2c1ncn2[C@@H]1O[C@H](COP(=O)(O)OP(=O)(O)C(Cl)(Cl)P(=O)(O)O)[C@@H](O)[C@H]1O [cangrelor]
IC50 [7]: ~2 nM
Sensitivity of platelet aggregometry to inhibition (platelet aggregation): equally sensitive
Sensitivity of Drp1 ratio assay to inhibition ([2]; compared with platelet aggregometry): equally sensitive

O=C1CCc2cc(OCCCCc3nnnn3C3CCCCC3)ccc2N1 [cilostazol]
Effect on SFLLRN-induced (PAR1-mediated) Drp1-Ser616 phosphorylation [1]: blocks; also recorded: sensitive; also recorded: prevents phophorylation at Ser616

COC(=O)[C@H](c1ccccc1Cl)N1CCc2sccc2C1 [clopidogrel]
Effect on SFLLRN-induced phospho-Drp1-Ser616 signal [5]: inhibited

CCOC(=O)N[C@@H]1CC[C@@H]2[C@@H](C1)C[C@H]1C(=O)O[C@H](C)[C@H]1[C@H]2/C=C/c1ccc(-c2cccc(F)c2)cn1 [vorapaxar]
IC50 [7]: ~5 nM
Effect on SFLLRN-induced phospho-Drp1-Ser616 signal [5]: inhibited

SFLLRN
Drp1 phosphorylation at Ser616 elicited by the agent [1]: Phosphorylation of Drp1 at S616 was observed
Time at which phospho-Drp1-Ser616 signal reaches peak ([5]; following activation of platelets by SFLLRN (FIG. 6C)): 15 min
Increase in phospho-Drp1-Ser616 to total Drp1 ([5]; stimulation of whole blood): greater than 2 fold
Time to maximum Drp1 ratio after exposure to agonist [2]: approximately 12. 5 minutes

collagen
Drp1 phosphorylation at Ser616 elicited by the agent [1]: Phosphorylation of Drp1 at S616 was observed

thrombin
Stimulation of Drp1-Ser616 phosphorylation [5]: significant increases
